Experimental data as given in patent US8314239B2, “Modulators of cystic fibrosis transmembrane conductance regulator” (priority 2008, dated 2012).
Where a name gives a salt, the structure may show the parent alone.

Target: T1, ΔF508-CFTR (Homo sapiens, UniProt P13569, DEL508-508)
T1 construct: expressed in transfected cells
Assay: Membrane potential optical assay for ΔF508-CFTR potentiation (double-addition HTS, FLIPR III)
Type: cell-based
Conditions: for Emax: 100% efficacy is the maximum response obtained with 4-methyl-2-(5-phenyl-1H-pyrazol-3-yl)phenol
Text: Membrane Potential Optical Methods for Assaying ΔF508-CFTR Modulation Properties of Compounds
The assay utilizes fluorescent voltage sensing dyes to measure changes in membrane potential using a fluorescent plate reader (e.g., FLIPR III, Molecular Devices, Inc.) as a readout for increase in functional ΔF508-CFTR in NIH 3T3 cells. The driving force for the response is the creation of a chloride ion gradient in conjunction with channel activation by a single liquid addition step after the cells have previously been treated with compounds and subsequently loaded with a voltage sensing dye.
To identify potentiators of ΔF508-CFTR, a double-addition HTS assay format was developed. This HTS assay utilizes fluorescent voltage sensing dyes to measure changes in membrane potential on the FLIPR III as a measurement for increase in gating (conductance) of ΔF508 CFTR in temperature-corrected ΔF508 CFTR NIH 3T3 cells. The driving force for the response is a Cl^− ion gradient in conjunction with channel activation with forskolin in a single liquid addition step using a fluorescent plate reader such as FLIPR III after the cells have previously been treated with potentiator compounds (or DMSO vehicle control) and subsequently loaded with a redistribution dye.
Bath Solution #1: (in mM) NaCl 160, KCl 4.5, CaCl2 2, MgCl2 1, HEPES 10, pH 7.4 with NaOH.
Chloride-Free Bath Solution: Chloride Salts in Bath Solution #1 are Substituted with Gluconate Salts.
NIH3T3 mouse fibroblasts stably expressing ΔF508-CFTR are used for optical measurements of membrane potential. The cells are maintained at 37° C. in 5% CO2 and 90% humidity in Dulbecco's modified Eagle's medium supplemented with 2 mM glutamine, 10% fetal bovine serum, 1×NEAA, β-ME, 1× pen/strep, and 25 mM HEPES in 175 cm^2 culture flasks. For all optical assays, the cells were seeded at ˜20,000/well in 384-well matrigel-coated plates and cultured for 2 hrs at 37° C. before culturing at 27° C. for 24 hrs. for the potentiator assay. For the correction assays, the cells are cultured at 27° C. or 37° C. with and without compounds for 16-24 hours. Electrophysiological Assays for assaying ΔF508-CFTR modulation properties of compounds.
Compounds of the invention are useful as modulators of ATP binding cassette transporters. Examples of activities and efficacies of the compounds of Formula (I) are shown below in Table 3. The compound activity is illustrated with “+++” if activity was measured to be less than 2.0 μM, “++” if activity was measured to be from 2 μM to 5.0 μM, “+” if activity was measured to be greater than 5.0 μM, and “−” if no data was available. The efficacy is illustrated with “+++” if efficacy was calculated to be greater than 100%, “++” if efficacy was calculated to be from 100% to 25%, “+” if efficacy was calculated to be less than 25%, and “−” if no data was available. It should be noted that 100% efficacy is the maximum response obtained with 4-methyl-2-(5-phenyl-1H-pyrazol-3-yl)phenol.

T1 sequence (P13569 with tags, fused parts or gaps DEL508-508): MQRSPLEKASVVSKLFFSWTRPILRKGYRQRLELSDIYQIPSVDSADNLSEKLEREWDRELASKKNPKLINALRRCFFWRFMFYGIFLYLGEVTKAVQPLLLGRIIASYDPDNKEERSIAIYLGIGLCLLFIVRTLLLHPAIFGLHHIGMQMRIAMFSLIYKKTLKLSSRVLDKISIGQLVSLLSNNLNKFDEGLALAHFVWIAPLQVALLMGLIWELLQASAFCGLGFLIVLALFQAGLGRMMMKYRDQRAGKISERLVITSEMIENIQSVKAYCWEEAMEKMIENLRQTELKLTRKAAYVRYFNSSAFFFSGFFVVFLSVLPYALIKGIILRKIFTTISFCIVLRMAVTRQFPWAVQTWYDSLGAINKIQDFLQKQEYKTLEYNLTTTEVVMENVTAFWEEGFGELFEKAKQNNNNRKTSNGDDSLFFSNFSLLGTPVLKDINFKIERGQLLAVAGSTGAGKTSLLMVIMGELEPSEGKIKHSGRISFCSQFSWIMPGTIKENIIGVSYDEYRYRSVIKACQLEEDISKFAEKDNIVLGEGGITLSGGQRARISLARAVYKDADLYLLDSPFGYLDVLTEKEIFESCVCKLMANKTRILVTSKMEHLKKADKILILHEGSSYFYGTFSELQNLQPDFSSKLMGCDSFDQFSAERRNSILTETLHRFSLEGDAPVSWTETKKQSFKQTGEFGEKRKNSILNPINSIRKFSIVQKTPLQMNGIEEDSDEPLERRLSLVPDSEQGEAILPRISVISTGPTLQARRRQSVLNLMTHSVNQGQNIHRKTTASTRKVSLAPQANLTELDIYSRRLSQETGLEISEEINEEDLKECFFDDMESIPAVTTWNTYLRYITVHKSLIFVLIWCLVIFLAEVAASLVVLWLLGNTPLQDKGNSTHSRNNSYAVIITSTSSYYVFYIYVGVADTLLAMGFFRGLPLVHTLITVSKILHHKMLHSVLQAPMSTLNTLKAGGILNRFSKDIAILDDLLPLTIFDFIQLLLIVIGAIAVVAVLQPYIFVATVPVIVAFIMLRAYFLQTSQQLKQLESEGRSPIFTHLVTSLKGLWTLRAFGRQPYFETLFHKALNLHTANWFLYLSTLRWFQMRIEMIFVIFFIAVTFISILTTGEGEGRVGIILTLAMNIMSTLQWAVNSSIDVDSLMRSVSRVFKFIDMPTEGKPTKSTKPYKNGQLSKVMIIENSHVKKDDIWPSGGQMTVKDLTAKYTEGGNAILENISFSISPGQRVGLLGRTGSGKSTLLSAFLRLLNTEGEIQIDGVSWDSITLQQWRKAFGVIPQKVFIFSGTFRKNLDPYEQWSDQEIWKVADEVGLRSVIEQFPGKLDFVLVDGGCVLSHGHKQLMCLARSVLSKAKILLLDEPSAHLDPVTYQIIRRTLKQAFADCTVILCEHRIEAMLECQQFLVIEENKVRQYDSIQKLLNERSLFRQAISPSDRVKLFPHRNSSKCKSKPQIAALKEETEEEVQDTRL

SMILES	EC50 [nM]	Emax [%]
Cc1cc(N2C3CCC2CC3)ncc1NC(=O)c1c[nH]c2cccc(C)c2c1=O [Compound 1, N-(6-(7-azabicyclo[2.2.1]heptan-7-yl)-4-methylpyridin-3-yl)-5-methyl-4-oxo-1,4-dihydroquinoline-3-carboxamide hydrochloride]	< 2000	25 to 100
O=C(Nc1ccc(N2C3CCC2CC3)nc1C(F)(F)F)c1c[nH]c2cccc(C(F)(F)F)c2c1=O [Compound 2, N-(6-(7-azabicyclo[2.2.1]heptan-7-yl)-2-(trifluoromethyl)pyridin-3-yl)-4-oxo-5-(trifluoromethyl)-1,4-dihydroquinoline-3-carboxamide]	< 2000	25 to 100
Cc1cccc2[nH]cc(C(=O)Nc3ccc(N4C5CCC4CC5)nc3C(F)(F)F)c(=O)c12 [Compound 3]	< 2000	25 to 100
